Series [1] concerns human primary osteoblast-like cells. Format: cell-based. As for the experimental part:
(§1) (1) For the cytotoxicity test, 1 × 10^4 cells were seeded in 48-well plates with cultivation medium (CM) DMEM/Ham’s F-12 (D/H; Biochrom, Germany) + 10% fetal calf serum (FCS; Biochrom, Germany) + 1% penicillin/streptomycin (P/S; Biochrom, Germany) + 0.05 mM L-ascorbic-2 phosphate (L-Asc) + 0.05 mM β-glycerolphosphate (β-Glyc) and incubated overnight at 37 °C, 5% CO2 and 95% relative humidity. After adding the AMPs (3–542 µg/ml - depending on the AMP) or gentamicin (8–1024 µg/ml) in CM with 1% FCS, without Pen/Strep, cells were cultured for three days. Cell viability was determined with an AlamarBlue® assay before adding the AMPs and after 3 days. Alkaline phosphatase activity was measured on day 3.
Alamar Blue® (Biozol, Germany) was done according to the manufacturer’s instruction.

Series [2] shares this test system. Format: cell-based. As to the method: as §1
The source holds these as a separate data set.

Series [3] concerns S. aureus internalized in human primary osteoblast-like cells. As to the kind of experiment: Effect against internalized bacteria. Format: cell-based, Staphylococcus aureus. The conditions noted are these: 7.5 μg/ml, n = 7. As to the method:
Human primary osteoblast-like cells were cultivated in 24-well plates with cultivation medium until they reached a minimum confluence of 80%. For the experiment, cells were washed and S. aureus (ATCC 29213) in cultivation medium added (~2 × 10^7 cfu/ml). After an incubation of 45 minutes, extracellular bacteria were killed using 200 µg/ml gentamicin dissolved in CM with 10% FCS, without P/S. After 1 hour incubation, gentamicin solution was removed, cells washed three times and AMP2 (33 and 67 µg/ml) in CM with only 1% FCS + no P/S added for 4 and 24 hours. As reference, 7.5 µg/ml rifampicin was used. All incubation steps were done in an incubator with 37 °C, 95% humidity and 5% CO2. For determination of the internalized bacteria, cells were lysed and the supernatant plated on CA plates. Experiment were done with n = 7.

The subject of a further series is S. aureus biofilm. In words: Biofilm assay by microcalorimetry and plating (MBCB). The format is cell-based, Staphylococcus aureus. The conditions noted are these: 128 µg/ml daptomycin, calorimetry and plating (data not shown). As for the experimental part:
To confirm MIC of the AMP2 by isothermal microcalorimetry, three different bouillons were tested: Mueller-Hinton II bouillon with adjusted cations (MH^++; BBL, Germany), Mueller-Hinton bouillon with low cations (MH^+; with 3–4 mg/l Ca^2+ and 5–6 mg/l Mg^2+; Oxoid, Germany) and Mueller-Hinton bouillon without cations (MH^−; Merck, Germany). AMP2 concentrations of 2–33 µg/ml were tested with the three different bouillons and gentamicin concentrations of 0.125–2 µg/ml were analyzed with MH^++. Staphylococcus aureus (ATCC 29213, 300 µl with 10^5 cfu/ml) was added to each microcalorimetry glass ampoule (Waters; Germany) containing 3.7 ml of AMP or gentamicin solution of (n = 3). The ampoules were hermetically sealed and heat flow (W) was measured for 24 hours in the calorimeter TAM III (TA Instruments, USA). For the biofilm assay, S. aureus biofilm was grown on glass beads (4 mm diameter, 60 µm pores; ROBU Glasfilter-Geräte, Germany) in MH^++ bouillon at 37 °C in an aerobe atmosphere for 24 hours. After washing with sodium chloride, beads were incubated with AMP2 (133, 267, 533 µg/ml) or daptomycin (128 µg/ml) in MH^++ bouillon for another 24 hours at 37 °C. Beads were washed again and added to the glass ampoule with fresh MH^++ bouillon. The total heat (J) was measured for 48 hours in the calorimeter. A concentration, which inhibits minimum 90% of biofilm, can be defined as the minimal biofilm inhibitory concentration (MICB). All samples were tested with n = 6.
Furthermore, the MBC for biofilms (MBCB) where 99.9% of all bacteria are killed was determined. After measurement, bouillon and glass beads were plated on CA plates and incubated for 24 hours at 37 °C in an aerobe atmosphere.

The test system of the next series is S. aureus (ATCC 29213). In words: Zone of inhibition test of PDLLA-coated titanium wires. The note with it: 10% w/w in poly(D,L-lactide) coating, n = 3, mean with standard deviation; day not given. Format: cell-based, Staphylococcus aureus. As to the method:
Titanium wires (diameter 1 mm, Synthes, USA) were coated with Poly(D,L-lactide) (PDLLA, Boehringer Ingelheim, Germany) and incorporated AMP2 at three different concentrations: 10% w/w, 20% w/w, or 30% w/w. Gentamicin/PDLLA (10% w/w) or PDLLA coated wires served as control. Briefly, 100 mg PDLLA was solved in 1.5 ml ethyl acetate and the wires were coated in a dipping procedure. Details of the coating were described previously. Three nails of each group were placed on Mueller-Hinton agar plates plated with S. aureus (ATCC 29213) and the zone of inhibition (ZOI) was quantified after 1, 3, 7, and 14 days using ImageJ software.

In another series the test system is E. coli ATCC 25922. As to the kind of experiment: Broth microdilution MIC and plating MBC. The format is cell-based. The conditions noted are these: Escherichia coli, ATCC25922. As to the method: (§2) To determine the minimal inhibitory concentration (MIC), classical broth microdilution method was performed after protocols from Wiegand et al.[15]. The influence of cations was analyzed by using cation adjusted Mueller-Hinton bouillon II with 20–25 mg/l Ca^2+ and 10–12.5 mg/l Mg^2+ (MH^++; BBL, Germany) or Mueller-Hinton bouillon without cations (MH^−; Merck, Germany) (n = 4–8).
(§3) The maximal concentration of the AMPs was between 200–271 µg/ml. The differences in the AMP concentration are due to the purity of the peptides (absorption coefficient from 5.19 to 9.36).
(Broth dilution looks for growth in wells or tubes with falling amounts of substance.)

A further series relates to S. epidermidis PIA 8400. In words: Broth microdilution MIC and plating MBC. Format: cell-based. The conditions noted are these: Staphylococcus epidermidis; for MIC: 1–5 × 10^5 cfu/ml, 37 °C, 18–24 h; for MBC: plated on Columbia-agar overnight 37 °C. As for the experimental part: as §2, §3
The next series deals with P. aeruginosa ATCC 27853. As to the kind of experiment: Broth microdilution MIC and plating MBC. The note with it: Pseudomonas aeruginosa; for MIC: 37 °C, 18–24 h. Format: cell-based. As to the method:
as §2, §3

The subject of another series is E. faecalis ATCC 29212. In words: Broth microdilution MIC and plating MBC. Format: cell-based. The note with it: Enterococcus faecalis, ATCC29212, MH++ (with cations), n = 4–8. As for the experimental part:
as §2, §3

Another series deals with S. aureus ATCC 29213. As to the kind of experiment: Broth microdilution MIC and plating MBC. The format is cell-based. The note with it: Staphylococcus aureus. As to the method:
as §2, §3

The subject of another series is S. aureus MSSA. In words: Broth microdilution MIC and plating MBC, clinical isolate. Format: cell-based. The note with it: Staphylococcus aureus.
From the text: (§4) The strains Escherichia coli (ATCC 25922), Enterococcus faecalis (ATCC 29212), Pseudomonas aeruginosa (ATCC 27853), Staphylococcus aureus (ATCC 29213) were used. In addition, following clinical isolates were used: Staphylococcus epidermidis (PIA 8400, isolated from blood cultures[48]), and two Staphylococcus aureus (MRSA and MSSA, both isolated from osteosyntheses material, kindly provided by Andrej Trampuz, Charité).
as §2, §3

In a further series the test system is S. aureus MRSA. The series is described as above. Format: cell-based. The conditions noted are these: Staphylococcus aureus, MH++ (with cations), n = 4–8.
From the text: as §4, §2, §3

For another series, the system named is planktonic S. aureus. In words: MIC by isothermal microcalorimetry, planktonic bacteria. The format is cell-based, Staphylococcus aureus. The note with it: Staphylococcus aureus; MH++, heat flow 24 hours, n = 3; read-out: MIC (calorimetry). As to the method: Mueller-Hinton II bouillon with adjusted cations (MH^++; BBL, Germany), Mueller-Hinton bouillon with low cations (MH^+; with 3-4 mg/l Ca^2+ and 5-6 mg/l Mg^2+; Oxoid, Germany) and Mueller-Hinton bouillon without cations (MH^-; Merck, Germany). AMP2 concentrations of 2-33 μg/ml were tested with the three different bouillons and gentamicin concentrations of 0.125-2 μg/ml were analyzed with MH^++. Staphylococcus aureus (ATCC 29213, 300 μl with 10^5 cfu/ml) was added to each microcalorimetry glass ampoule (Waters; […] The ampoules were hermetically sealed and heat flow (W) was measured for 24 hours in the calorimeter TAM III (TA Instruments, USA). […] ROBU […], Germany) in MH^++ bouillon at 37 °C in an aerobe atmosphere for 24 hours. […] Beads were washed again and added to the glass ampoule with fresh MH^++ bouillon. The total heat (J) was measured for 48 hours in the calorimeter. A concentration, which inhibits minimum 90% of biofilm, can be defined as the minimal biofilm inhibitory concentration (MICB). All samples were tested with n = 6.

The mark [4] stands for this setting: ATCC27853, MH++ (with cations), n = 4–8.
Setting [5] is: ATCC27853, MH− (without cations), n = 4.

Converted amounts (≈) assume the structure as drawn. Where only a bound is given, the exact number is not on record here.

From publication PMC5431435, “A short artificial antimicrobial peptide shows potential to prevent or treat bone infections” (Scientific Reports, 2017) come the findings set out here.

By MBC is commonly meant the smallest concentration meeting the test's criterion for killing. A high value points to weaker bactericidal potency. Broadly, the MIC is the lowest concentration found to suppress growth.

For the compound “WRKFWKYLK [AMP5, 9mer cationic antimicrobial peptide … from an optimized peptide library]”, in [1], the “concentrations with no negative effect on cell viability” value (“concentrations with no negative effect” for short) was under 63 µg/mL and the “concentrations with significant inhibition of viability compared to the control group” value was at least 63 µg/mL. Besides, the “concentrations with significant inhibition of alkaline phosphatase activity compared to the control group” value in series [2] was at least 63 µg/mL.

With “RTKKWIVWI [AMP3, 9mer cationic antimicrobial peptide … from an optimized peptide library]”, in [1], the “concentrations with no negative effect” value is under 68 µg/mL and the “concentrations with significant inhibition of viability compared to the control group” value was at least 68 µg/mL.

As for “RRRIKIRWY [AMP4, 9mer cationic antimicrobial peptide … from an optimized peptide library]”, in series [1], the “concentrations with no negative effect” value is under 251 µg/mL and the “concentrations with significant inhibition of viability compared to the control group” value is at least 251 µg/mL.

Take “YRLRVKWKW [AMP1, 9mer cationic antimicrobial peptide … from an optimized peptide library]”: in [1], the “concentrations with no negative effect” value was under 100 µg/mL and the “concentrations with significant inhibition of viability compared to the control group” value is at least 100 µg/mL. Also, the “concentrations with significant inhibition of alkaline phosphatase activity compared to the control group” value in series [2] is listed as “all concentrations”.

Turning to `CO[C@H]1/C=C/O[C@@]2(C)Oc3c(C)c(O)c4c(O)c(c(/C=N/N5CCN(C)CC5)c(O)c4c3C2=O)NC(=O)/C(C)=C\C=C\[C@H](C)[C@H](O)[C@@H](C)[C@@H](O)[C@@H](C)[C@H](OC(C)=O)[C@@H]1C` [rifampicin, reference compound], the “internalized bacteria compared to 0 μg/ml AMP [= 100%]” value in series [3] (4 h) stood at 15%; in series [3] (24 h) it was 0.0006%.

With daptomycin [reference compound], the biofilm growth entry with S. aureus biofilm was “completely inhibited”.

Consider `CNC(C)C1CCC(N)C(OC2C(N)CC(N)C(OC3OCC(C)(O)C(NC)C3O)C2O)O1` (centres unmarked) [gentamicin], for which, in the series with S. aureus (ATCC 29213), the ZOI is on record as 10.8 +/- 0.6 cm². For the same compound, the MBC with E. coli ATCC 25922 (MH++ (with cations), n = 4–8) was 2 µg/mL (≈ 4.19 µM); against S. epidermidis PIA 8400 (PIA8400, MH++ (with cations), n = 4–8) it was 1 µg/mL (≈ 2.09 µM); against S. epidermidis PIA 8400 (PIA8400, MH− (without cations), n = 4), 0.25 µg/mL (≈ 0.523 µM); in the series on P. aeruginosa ATCC 27853 (setting [4]), 4 µg/mL (≈ 8.38 µM); against P. aeruginosa ATCC 27853 (setting [5]), 1 µg/mL (≈ 2.09 µM); against E. faecalis ATCC 29212, 32 µg/mL (≈ 67 µM). Moreover, the minimal bactericidal concentration (MBC) against S. aureus ATCC 29213 (ATCC29213, MH++ (with cations), n = 4–8) worked out at 0.5 µg/mL (≈ 1.05 µM); against S. aureus ATCC 29213 (ATCC29213, MH− (without cations), n = 4), 1 µg/mL (≈ 2.09 µM); against S. aureus MSSA (MH++ (with cations), n = 4–8) it was 0.125 µg/mL (≈ 0.262 µM); in the series on S. aureus MSSA (MH− (without cations), n = 4) it was 1 µg/mL (≈ 2.09 µM). The MIC amounted to 1 µg/mL (≈ 2.09 µM) against E. coli ATCC 25922 (MH− (without cations), 37 °C, 18–24 h, n = 4); 0.25 µg/mL (≈ 0.523 µM) with S. epidermidis PIA 8400 (PIA8400, MH++ (cation adjusted Mueller-Hinton bouillon II), n = 4–8); 0.125 µg/mL (≈ 0.262 µM) in the series on S. epidermidis PIA 8400 (PIA8400, MH− (Mueller-Hinton bouillon without cations), n = 4); 1 µg/mL (≈ 2.09 µM) against P. aeruginosa ATCC 27853 (setting [4]); 0.25 µg/mL (≈ 0.523 µM) in the series on P. aeruginosa ATCC 27853 (setting [5]); 16 µg/mL (≈ 33.5 µM) in the series with E. faecalis ATCC 29212 (37 °C, 5% CO2, 18–24 h). Besides, the MIC was 0.5 µg/mL (≈ 1.05 µM) with S. aureus ATCC 29213 (ATCC29213, MH++ (with cations), 37 °C, 18–24 h, n = 4–8); 0.125 µg/mL (≈ 0.262 µM) against S. aureus MSSA (MH++ (with cations), n = 4–8); 0.25 µg/mL (≈ 0.523 µM) in the series with S. aureus MSSA (MH− (without cations), n = 4); over 32 µg/mL against S. aureus MRSA; 1 µg/mL (≈ 2.09 µM) in the series with planktonic S. aureus.
